Assay results: patent US12692253B2, “Antimicrobial compounds and methods” (Curza Global, LLC, priority 2019, dated 2026)

Assays:
[1] = test system: E. coli S30 extract (bacterial protein synthesis); experiment: E. coli S30 extract coupled transcription-translation luciferase assay (inhibition of bacterial protein synthesis); assay type: biochemical; conditions: % inhibition @ 1 μM, read-out: S30 IC50 (μM/% inhib.)
Method in brief: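 Coupled transcription-translation in E. coli S30 circular-DNA extract expressing luciferase from pBESTluc, with 8-point 2-fold compound dilutions; 1 hour at 37 °C, stopped at 4 °C. Luminescence read; % inhibition versus no-inhibitor wells, no-DNA wells as background.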

[2] = biological target: Rabbit Reticulocyte Lysate (eukaryotic protein synthesis); experiment: Rabbit reticulocyte lysate luciferase assay (inhibition of eukaryotic protein synthesis); assay type: biochemical; conditions: % inhibition @ 1 μM, read-out: Rabbit reticulocyte IC50 (μM/% inhib.)
Method in brief: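 In vitro translation of luciferase control RNA in nuclease-treated rabbit reticulocyte lysate with amino acid mixture, compounds in 2-fold serial dilution, 90 minutes at 30° C. Luminescence read after luciferase reagent; % inhibition relative to water no-inhibitor controls, with no-RNA background wells.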

A. baumannn (Ab) = experiment: Broth microdilution minimum inhibitory concentration (MIC), CLSI; assay type: cell-based; conditions: A. baumannn; growth medium with sodium bicarbonate; read-out: Ab + bicarb MIC
Method in brief: (§1)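 CLSI broth microdilution with modification: 8-point two-fold compound dilutions in CAMHB, CAMHB plus 6.25 or 25 mM sodium bicarbonate, or CAMHB plus 0–50% heat-inactivated human serum. Inoculum 5×10^4 CFU/well from log-phase cultures adjusted to 0.5 McFarland; triplicate wells.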

E. coli (Ec) = experiment: as above; assay type: cell-based; conditions: Escherichia coli, growth medium with sodium bicarbonate, read-out: E. coli + bicarb MIC
Method in brief: as §1

E. faecalis (Ef) = experiment: as above; assay type: cell-based; conditions: growth medium with sodium bicarbonate; for MIC: Enterococcus faecalis, read-out: Ef + bicarb MIC
Method in brief: as §1

P. aeruginosa (Pa) = experiment: as above; assay type: cell-based; conditions: Pseudomonas aeruginosa, growth medium with sodium bicarbonate, read-out: Pa MIC + bicarb
Method in brief: as §1

S. aureus (Sa) = experiment: as above; assay type: cell-based; conditions: Staphylococcus aureus, growth medium with sodium bicarbonate, read-out: Sa + bicarb MIC
Method in brief: as §1

| SMILES | IC50 [1] [µM] | IC50 [2] [µM] | MIC (A. baumannn (Ab)) [µg/mL] | MIC (E. coli (Ec)) [µg/mL] | MIC (E. faecalis (Ef)) [µg/mL] | MIC (P. aeruginosa (Pa)) [µg/mL] | MIC (S. aureus (Sa)) [µg/mL] | Ef + bicarb MIC (E. faecalis (Ef)) |
| --- | --- | --- | --- | --- | --- | --- | --- | --- |
| CCN(C(C)Cc1ccc(-n2ccc(NC(=O)N3CCN(C(=O)C(C)(C)N)CC3)nc2=O)cc1)C12CC(CN)(C1)C2 (stereo not drawn) [Compound 201] | < 0.5 | ≥ 1 | > 32 | < 8 | < 8 | > 32 | < 8 | – |
| CC(Cc1ccc(-n2ccc(NC(=O)N3CCN(C(=O)C(C)(C)N)CC3)nc2=O)cc1)NC12CC(N)(C1)C2 (stereo not drawn) [Compound 202] | ≥ 1 | ≥ 1 | 8 to 32 | > 32 | > 32 | > 32 | > 32 | – |
| CC(Cc1ccc(-n2ccc(NC(=O)N3CCN(C(=O)C(C)(C)N)CC3)nc2=O)cc1)NC12CC(CN)(C1)C2 (stereo not drawn) [Compound 203] | ≥ 1 | ≥ 1 | > 32 | 8 to 32 | > 32 | > 32 | 8 to 32 | – |
| CC(Cc1ccc(-n2ccc(NC(=O)N3CCN(C(=O)C(C)(C)N)CC3)nc2=O)cc1)NCC1[C@H]2CNC[C@@H]12 (stereo partly drawn) [Compound 204] | ≥ 1 | ≥ 1 | > 32 | < 8 | > 32 | > 32 | < 8 | – |
| CC(Cc1ccc(-n2ccc(NC(=O)N3CCN(C(=O)C(C)(C)N)CC3)nc2=O)cc1)N1C[C@@H]2[C@H](C1)[C@H]2C(C)(C)N (stereo partly drawn) [Compound 205] | ≥ 1 | ≥ 1 | > 32 | 8 to 32 | > 32 | > 32 | 8 to 32 | – |
| CC(C)(N)C(=O)N1CCN(C(=O)Nc2ccn(-c3ccc(CN4C[C@@H]5C(C(C)(C)N)[C@@H]5C4)cc3)c(=O)n2)CC1 (stereo partly drawn) [Compound 206] | < 0.5 | ≥ 1 | > 32 | < 8 | 8 to 32 | > 32 | < 8 | – |
| CC(C)(N)C(=O)N1CCN(C(=O)Nc2ccn(-c3ccc(CN4C[C@@H]5C([C@H](N)CO)[C@@H]5C4)cc3)c(=O)n2)CC1 (stereo partly drawn) [Compound 207] | < 0.5 | ≥ 1 | > 32 | < 8 | 8 to 32 | > 32 | < 8 | – |
| CC(Cc1ccc(-n2ccc(NC(=O)N3CCN(C(=O)C(C)(C)N)CC3)nc2=O)cc1C(F)(F)F)N1C[C@@H]2[C@@H](CN)[C@@H]2C1 (stereo partly drawn) [Compound 208] | < 0.5 | ≥ 1 | 8 to 32 | < 8 | < 8 | > 32 | < 8 | – |
| CC(Cc1ccc(-n2ccc(NC(=O)N3CCN(C(=O)C(C)(C)N)CC3)nc2=O)cc1C(F)(F)F)N1C[C@@H]2[C@@H](N)[C@@H]2C1 (stereo partly drawn) [Compound 209] | ≥ 1 | ≥ 1 | > 32 | > 32 | > 32 | > 32 | > 32 | – |
| CC(C)(N)C(=O)N1CCN(C(=O)Nc2ccn(-c3ccc(CCN4C[C@@H]5[C@H](C4)[C@H]5C(N)CO)cc3)c(=O)n2)CC1 (stereo partly drawn) [Compound 210] | 0.5 to 1 | ≥ 1 | > 32 | < 8 | 8 to 32 | > 32 | < 8 | – |
| CCC(Cc1ccc(-n2ccc(NC(=O)N3CCN(C(=O)C(C)(C)N)CC3)nc2=O)cc1C(F)(F)F)N1C[C@@H]2[C@@H](CN)[C@@H]2C1 (stereo partly drawn) [Compound 211] | 0.5 to 1 | ≥ 1 | 8 to 32 | < 8 | < 8 | > 32 | < 8 | – |
| CC(=O)NC[C@@H]1[C@H]2CN(C(C)Cc3ccc(-n4ccc(NC(=O)N5CCN(C(=O)C(C)(C)N)CC5)nc4=O)cc3)C[C@@H]12 (stereo partly drawn) [Compound 212] | ≥ 1 | ≥ 1 | > 32 | > 32 | > 32 | > 32 | > 32 | – |
| CC(C)(N)C(=O)N1CCN(C(=O)Nc2ccn(-c3ccc(CCN4C[C@@H]5[C@H](C4)[C@H]5C(N)CN)cc3)c(=O)n2)CC1 (stereo partly drawn) [Compound 213] | ≥ 1 | ≥ 1 | > 32 | < 8 | > 32 | > 32 | > 32 | – |
| CC(Cc1ccc(-n2ccc(NC(=O)N3CCN(C(=O)C(C)(C)N)CC3)nc2=O)cc1)N1CC2CCC(N)C2C1 (stereo not drawn) [Compound 214] | < 0.5 | ≥ 1 | > 32 | < 8 | < 8 | > 32 | < 8 | – |
| CC(Cc1ccc(-n2ccc(NC(=O)N3CCN(C(=O)C(C)(C)N)CC3)nc2=O)cc1)N1CC2CCC(N)CC2C1 (stereo not drawn) [Compound 215] | < 0.5 | ≥ 1 | > 32 | < 8 | – | > 32 | < 8 | ++ (An MIC value (μg/mL) that is 8 μg/mL or greater and less than 32 μg/mL) |
| CC(Cc1ccc(-n2ccc(NC(=O)N3CCN(C(=O)C(C)(C)N)CC3)nc2=O)cc1)N1CC2CCCC(N)C2C1 (stereo not drawn) [Compound 216] | < 0.5 | ≥ 1 | > 32 | < 8 | < 8 | > 32 | < 8 | – |
| CCC(Cc1ccc(-n2ccc(NC(=O)N3CCN(C(=O)C(C)(C)N)CC3)nc2=O)cc1)N1CC2CCC(N)C2C1 (stereo not drawn) [Compound 217] | < 0.5 | ≥ 1 | > 32 | < 8 | < 8 | > 32 | < 8 | – |
| CCC(Cc1ccc(-n2ccc(NC(=O)N3CCN(C(=O)C(C)(C)N)CC3)nc2=O)cc1)N1CC2CCC(N)CC2C1 (stereo not drawn) [Compound 218] | < 0.5 | ≥ 1 | > 32 | < 8 | – | > 32 | < 8 | +++ (An MIC value (μg/mL) that is less than 8 μg/mL) |
| CCC(Cc1ccc(-n2ccc(NC(=O)N3CCN(C(=O)C(C)(C)N)CC3)nc2=O)cc1)N1CC2CCCC(N)C2C1 (stereo not drawn) [Compound 219] | < 0.5 | ≥ 1 | > 32 | < 8 | < 8 | > 32 | < 8 | – |
| CC(Cc1ccc(-n2ccc(NC(=O)N3CCN(C(=O)C(C)(C)N)CC3)nc2=O)cc1)[N+]1(C)C[C@@H]2[C@@H](CN)[C@@H]2C1 (stereo partly drawn) [Compound 220] | < 0.5 | ≥ 1 | > 32 | < 8 | 8 to 32 | > 32 | < 8 | – |
| CCC(Cc1ccc(-n2ccc(NC(=O)N3CCN(C(=O)C(C)(C)N)CC3)nc2=O)cc1)N1C[C@@H]2[C@@H](CNC)[C@@H]2C1 (stereo partly drawn) [Compound 221] | ≥ 1 | ≥ 1 | < 8 | < 8 | < 8 | > 32 | < 8 | – |
| CC(Cc1ccc(-n2ccc(NC(=O)N3CCN(C(=O)[C@H](C)N)CC3)nc2=O)cc1)N1C[C@@H]2[C@@H](CN)[C@@H]2C1 (stereo partly drawn) [Compound 222] | 0.5 to 1 | ≥ 1 | > 32 | < 8 | 8 to 32 | > 32 | < 8 | – |
| CC(C)[C@H](N)C(=O)N1CCN(C(=O)Nc2ccn(-c3ccc(CC(C)N4C[C@@H]5[C@@H](CN)[C@@H]5C4)cc3)c(=O)n2)CC1 (stereo partly drawn) [Compound 223] | < 0.5 | ≥ 1 | > 32 | < 8 | < 8 | > 32 | < 8 | – |
| CCC(N)(CC)C(=O)N1CCN(C(=O)Nc2ccn(-c3ccc(CN4C[C@@H]5[C@@H](N)[C@@H]5C4)cc3)c(=O)n2)CC1 [Compound 224] | < 0.5 | ≥ 1 | > 32 | < 8 | < 8 | > 32 | < 8 | – |
| CC(Cc1ccc(-n2ccc(NC(=O)N3CCN(C(=O)C(C)(C)N)CC3)nc2=O)cc1)N1CCC2(CC(N)C2)C1 (stereo not drawn) [Compound 225] | 0.5 to 1 | ≥ 1 | > 32 | < 8 | – | > 32 | < 8 | +++ (An MIC value (μg/mL) that is less than 8 μg/mL) |
| CC(Cc1ccc(-n2ccc(NC(=O)N3CCN(C(=O)C4(N)CC4)CC3)nc2=O)cc1)N1C[C@@H]2[C@@H](CN)[C@@H]2C1 (stereo partly drawn) [Compound 226] | ≥ 1 | ≥ 1 | > 32 | > 32 | > 32 | > 32 | > 32 | – |
| CC(Cc1ccc(-n2ccc(NC(=O)N3CCN(C(=O)CN)CC3)nc2=O)cc1)N1C[C@@H]2[C@@H](CN)[C@@H]2C1 (stereo partly drawn) [Compound 227] | 0.5 to 1 | ≥ 1 | > 32 | < 8 | < 8 | > 32 | < 8 | – |
